According to patent publication US20220125837A1, “METHODS FOR CONTROLLED ELIMINATION OF THERAPEUTIC CELLS” (Bellicum Pharmaceuticals, Inc., priority 2014, published 2022):
Like-named read-outs stand apart in the source and are kept apart here.

Assays:
[1] = tested on: human CD3+CD19+ T cells; assay: AP1903 dose-dependent elimination in vivo of iCasp9-transduced T cells; set-up: species or system immune deficient mice (NSG); details: mouse
Method: The Caspase-9 polypeptide has a dose-response curve in vivo, which could be used to eliminate a variable fraction of T cells expressing the Caspase-9 polypeptide.
T cells were transduced with SFG-iCasp9-D330E-2A-ΔCD19 retrovirus and injected i.v. into immune deficient mice (NSG). […] After an additional 24 hours, mice were sacrificed and lymphocytes from the spleen (A) were isolated and analyzed by flow cytometry for the frequency of human CD3+CD19+ T cells.

[2] = cited from earlier work
[3] = tested on: 293 cells; assay: SRα-SEAP assay in 293 cells with FRBl2-tagged CAR and iCaspase-9: rapamycin or rimiducid; type: cell-based, human; details: overnight
Method: Two tandem FRB, domains were fused to either either a 1st generation Her2-CAR or to a 1st generation CD19-CAR co-expressing inducibleiCaspase-9. 293 cells were transiently transfected with a constitutive reporter plasmid, SRα-SEAP, along with normalized levels of expression plasmids encoding Her2-CAR-FRBl2, iCaspase-9, Her2-CAR-FRBl2+iCasp9, iC9-CAR(19).FRBl2 (coexpressing both CD19-CAR-FRBl2 and iCaspase9), or control vector. […] After overnight incubation with drugs, SEAP activity was determined. […] This dose-dependent decrease required the presence of both the FRB-tagged CAR and the FKBP12-tagged Caspase-9. […] Moreover, on- or off-target-mediated CAR clustering should increase the sensitivity of killing primarily at the site of scFv engagement.
24 hours following transfection (4.1), 293T cells are split to 96-well plates and incubated with dilutions of dimerizing drugs. Briefly, 100 μL media is added to each well of a 96-well flat-bottom plate. Drugs are diluted in tubes to a concentration 4× the top concentration in the gradient to be place on the plate. […]
24 hours after drug stimulation, 96-well plates are wrapped to prevent evaporation and incubated at 65° C. for 2 hours to inactivate endogenous and serum phosphatases while the heat-stable SeAP reporter remains (3, 12, 14). […] Phosphatase activity is measured by fluorescence with excitation at 355 nm and emission at 460 nm. […]

[4] = tested on: cells; assay: AP1903 needed in vitro for effective signaling of cells; type: cell-based
Method: This equates to 16-160 μg/L or ˜0.016-1.6 mg/kg (1.6-160 μg/kg).

[5] = tested on: CD3+ΔCD19+ cells; assay: CASPALLO phase I clinical trial: AP1903 in patients with GvHD after iCasp9 T cells; type: in vivo, human
Method: Prior to administration, the calculated dose was diluted to 100 mL in 0.9% normal saline for infusion.

[6] = target: FRB-PLF (Homo sapiens, UniProt P42345+P62942, K2095P/T2098L/W2101F); details: cited from earlier work
[7] = target: wt FRB (K2095 T2098 W2101) (Homo sapiens, UniProt P42345+P62942); details: cited from earlier work
[8] = target: FRB-KTF (Homo sapiens, UniProt P42345+P62942, W2101F); details: cited from earlier work
[9] = tested on: primary T cells; assay: AP1903-dependent cytotoxicity in primary T cells transduced with caspase variants; type: cell-based, human; details: AP1903 at Day 0 and day 4
Method: The effects of various caspase polypeptides at mostly single copy in primary T cells was assayed. This may reflect more accurately how these suicide genes will be used therapeutically.
Primary T cells from healthy donors (n=6) were transduced with retrovirus encoding mutant or wild-type iCasp9 or iCasp9-D330A, and the ΔCD19 cell surface marker. Following transduction, iCasp9-transduced T cells were purified using CD19-microbeads and a magnetic column.

Chain of wt FRB (K2095 T2098 W2101) (P62942 2-108): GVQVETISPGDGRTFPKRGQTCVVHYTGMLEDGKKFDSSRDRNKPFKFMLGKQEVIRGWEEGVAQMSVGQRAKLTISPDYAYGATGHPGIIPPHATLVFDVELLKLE
Chain of wt FRB (K2095 T2098 W2101) (P42345 2012-2144): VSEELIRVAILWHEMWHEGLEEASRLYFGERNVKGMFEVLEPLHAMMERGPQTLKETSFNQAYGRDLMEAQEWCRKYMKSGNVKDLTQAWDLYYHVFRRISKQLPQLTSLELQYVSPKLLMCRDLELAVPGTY
Chain of FRB-KTF (P42345 2012-2144 W2101F): as the sequence (P42345 2012-2144) above, with W90F counted along it
Chain of FRB-KTF (P62942 2-108): as the sequence (P62942 2-108) above
Chain of FRB-PLF (P42345 2012-2144 K2095P/T2098L/W2101F): as the sequence (P42345 2012-2144) above, with K84P, T87L, W90F counted along it
Chain of FRB-PLF (P62942 2-108): as the sequence (P62942 2-108) above

In the case of `CC[C@H](C(=O)N1CCCC[C@H]1C(=O)O[C@H](CCc1ccc(OC)c(OC)c1)c1cccc(OCC(=O)NCCNC(=O)COc2cccc([C@@H](CCc3ccc(OC)c(OC)c3)OC(=O)[C@@H]3CCCCN3C(=O)[C@@H](CC)c3cc(OC)c(OC)c(OC)c3)c2)c1)c1cc(OC)c(OC)c(OC)c1` (relative stereo) [AP1903, 2-Piperidinecarboxylic acid, 1-[(2S)-1-oxo-2-(3,4,5-trimethoxyphenyl)butyl]-, 1,2-ethanediylbis[imino(2-oxo-2,1-ethanediyl)oxy-3,1-phenylene[(1R)-3-(3,4-dimethoxyphenyl)propylidene]] ester, [2S-[1(R*),2R*[S*[S*[1(R*),2R*]]]]]-(9Cl)], the “dose sufficient to eliminate most modified T cells in vivo” value [1] is listed as 0.5 mg/kg, the “plasma level as % of maximal concentration” value ([2]; 2 hours post-dose) is listed as about 7% and the “plasma level as % of maximal concentration” value ([2]; 10 hours post-dose) is listed as about 1%. For the same molecule, the well-tolerated doses ([2]; Phase I study) was “up to 1 mg/kg”, the “SEAP activity, % of normal levels” value ([3]; at much lower levels of drug) was “about 20%” and the “amount needed in vitro for effective signaling of cells” value [4] was 10 to 100 nM. The “ablation of CD3+ΔCD19+ cells” value ([5]; patients with grade I/II aGVHD, 0.4 mg/kg 2 h infusion, within 30 minutes of infusion) was over 90%, the “time to resolution of skin and liver aGvHD” value ([5]; two patients) was at most 24 h and the “further change of CD3+ΔCD19+ cells” value ([5]; within 24 hours) was “further log reduction”.

For `CO[C@@H]1C[C@H](C[C@@H](C)[C@@H]2CC(=O)[C@H](C)/C=C(\C)[C@@H](O)[C@@H](OC)C(=O)[C@H](C)C[C@H](C)/C=C/C=C/C=C(\C)[C@H](OC(C)C)C[C@@H]3CC[C@@H](C)[C@@](O)(O3)C(=O)C(=O)N3CCCC[C@H]3C(=O)O2)CC[C@H]1O` [R-Isopropoxyrapamycin], the EC50 [6] is given as about 8.5 nM and the EC50 [7] is given as about 300 nM.

In the case of `CO[C@H]1C[C@@H]2CC[C@@H](C)[C@@](O)(O2)C(=O)C(=O)N2CCCC[C@H]2C(=O)O[C@H]([C@H](C)C[C@@H]2CC[C@@H](O)[C@H](OC)C2)CC(=O)[C@H](C)/C=C(\C)[C@@H](O)[C@@H](OC)C(=O)[C@H](C)C[C@H](C)/C=C/C=C/C=C/1C` [Rapamycin], the “maximal decrease of SEAP activity” value ([3]; FRB-tagged CAR plus FKBP12-tagged Caspase-9) is reported as about 50%.

In the case of S-Butanesulfonamidorap, the EC50 [8] is listed as over 200 nM.

B1: F404Y: chimeric modified Caspase-9 polypeptide (protein)
chain: VDGFGDVGALESLRGNADLAYILSMEPCGHCLIINNVNFCRESGLRTRTGSNIDCEKLRRRFSSLHFMVEVKGDLTAKKMVLALLELARQDHGALDCCVVVILSHGCQASHLQFPGAVYGTDGCPVSVEKIVNIFNGTSCPSLGGKPKLFFIQACGGEQKDHGFEVASTSPEDESPGSNPEPDATPFQEGLRTFDQLDAISSLPTPSDIFVSYSTFPGFVSWRDPKSGSWYVETLDDIFEQWAHSEDLQSLLLRVANAVSVKGIYKQMPGCYNFLRKKLFFKTSASRA
For B1, the “killing of target T cells within 10 days, in words” value [9] was “indistinguishable from wild type Caspase-9 polypeptide or D330A”.
